The values below are quoted from earlier work in patent publication US20100012894A1, “Tooth Whitening Compositions and Methods” (priority 2008, published 2010).

The conditions of the data set: at six months; concentrations 16%-18% carbamide peroxide (Brunton et al., 2004).

Turning to `NC(N)=O.OO` [carbamide peroxide], the rebound is given as 40 % of patients.
